Test results reported in ChEMBL document CHEMBL1146390, “Cytotoxic acylated Spermidine from a soft coral, Sinularia sp” (1997).
Values after ≈ are worked out from the molar mass of the structure shown.

System: P388
Assay: Cytotoxicity against mouse P388 cells
Format: functional
Settings: read-out: ED50 (the source's name)

## CCCCCCCCCC(C)/C=C/CC(=O)NCCCN(C)CCCCN(C)C (stereo unspecified)
  EC50: 0.04 µg/mL (≈ 0.0976 µM)
